Data reported in patent US7101878B1 (Agouron Pharmaceuticals, Inc., priority 1998, dated 2006).

How the values were obtained:
[1] = target: T1, human GnRH receptor (Homo sapiens, UniProt P30968); experiment: Radioligand binding, 125I-GnRH-A displacement, membranes of HEK 293 cells with human GnRH receptor; conditions: read-out: hGnRH IC50
T1 construct: expressed in transfected cells; host or cells: HEK 293 (hGnRH-R/293, from Dr. Stuart Sealfon)
T1 sequence (P30968 1-328): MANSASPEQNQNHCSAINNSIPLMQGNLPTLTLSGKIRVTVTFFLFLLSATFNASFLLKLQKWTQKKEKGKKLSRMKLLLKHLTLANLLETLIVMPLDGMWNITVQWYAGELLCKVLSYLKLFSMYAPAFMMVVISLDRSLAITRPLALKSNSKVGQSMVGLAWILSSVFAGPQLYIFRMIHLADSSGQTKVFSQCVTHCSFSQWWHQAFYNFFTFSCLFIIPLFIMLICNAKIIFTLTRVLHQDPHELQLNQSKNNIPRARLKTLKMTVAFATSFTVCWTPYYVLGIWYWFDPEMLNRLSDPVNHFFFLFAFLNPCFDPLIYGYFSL
Outline: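 Bound tracer was separated by filtration through polyethyleneimine-soaked GF/C filters and counted by liquid scintillation. IC50 from curve fitting; other species were tested under the same conditions.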

[2] = target: T2, mouse GnRH receptor (Mus musculus, UniProt Q01776); experiment: Radioligand binding, 125I-GnRH-A, 293 cells expressing mouse GnRH receptors; conditions: read-out: mGnRH IC50
T2 construct: expressed in transfected cells; host or cells: 293 cells
T2 sequence (Q01776 1-327): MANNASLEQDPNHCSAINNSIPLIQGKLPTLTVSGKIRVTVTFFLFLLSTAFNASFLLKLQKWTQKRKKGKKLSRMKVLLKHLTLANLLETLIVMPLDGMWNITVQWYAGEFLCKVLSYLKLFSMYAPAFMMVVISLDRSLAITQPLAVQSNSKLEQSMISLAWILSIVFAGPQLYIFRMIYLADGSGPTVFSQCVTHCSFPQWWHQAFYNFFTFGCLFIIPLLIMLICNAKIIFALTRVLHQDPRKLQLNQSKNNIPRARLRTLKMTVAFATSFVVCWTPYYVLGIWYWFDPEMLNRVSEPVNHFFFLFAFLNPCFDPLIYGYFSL
Outline: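 Bound label captured on 0.1% polyethyleneimine-treated GF/C filters, washed three times with PBS, counted. IC50 derived; identical set-up for every species.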

[3] = Metabolism rate, pmol/min/mg at 1 μM, human; assay type: in vitro ADME; conditions: 1 μM compound
[4] = Metabolism rate, pmol/min/mg at 1 μM, rat male; assay type: in vitro ADME; conditions: 1 μM compound
[5] = target: T3, rat GnRH receptor (Rattus norvegicus, UniProt P30969); experiment: Radioligand binding, 125I-GnRH-A, rat pituitary membranes; design: membranes were prepared from rat pituitary; from tissue; host or cells: rat pituitary; conditions: read-out: rGnRH IC50
T3 sequence (P30969 1-327): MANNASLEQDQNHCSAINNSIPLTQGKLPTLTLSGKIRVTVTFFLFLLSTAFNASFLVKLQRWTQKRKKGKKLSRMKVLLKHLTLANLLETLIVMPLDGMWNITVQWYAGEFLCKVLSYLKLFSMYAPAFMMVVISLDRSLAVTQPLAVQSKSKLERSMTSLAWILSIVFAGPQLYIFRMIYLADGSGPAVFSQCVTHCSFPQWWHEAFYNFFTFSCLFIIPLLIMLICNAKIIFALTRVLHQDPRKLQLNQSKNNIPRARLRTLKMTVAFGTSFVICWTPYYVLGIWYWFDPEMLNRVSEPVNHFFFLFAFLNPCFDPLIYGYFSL
Protocol: All compounds were diluted in 1% DMSO (final assay concentration) in binding assay buffer. […] Reactions were terminated by rapid filtration onto 96-well Packard GF/C filters soaked in 0.1% polyethyleneimine. Filters were washed three times with PBS buffer, dried and counted on a Packard Topcount by liquid scintillation counting.
Assay conditions were identical for assessing compound activities at other species. […] IC50 values for control peptides and test compounds were calculated utilizing GraphPad Prism™ software.
The reaction mixture was vortexed and incubated for 1 min at room temperature. After one min, the mixture was vortexed and allowed to incubate for an additional minute. 2 ml of 0.5 M acetic acid/1% BSA was added to the reaction tube and the mixture was added to a C18 Sep-Pak cartridge. The cartridge was washed with subsequent washes of 5 ml H2O and 5 ml 0.5M acetic acid and then eluted with 5×1 ml of 60% CH3CN/40% 0.5M acetic acid. The eluate was diluted with 3× volume of HPLC buffer A (0.1% TFA in H2O) and loaded onto a C18 column. […] The radioactive fractions (750 ed/fraction) are collected into clean polypropylene tubes containing 100 μl of 10% BSA. Fractions were assessed for biological activity by radioligand binding.

[6] = Pharmacokinetic studies / bioavailability in rats; assay type: in vivo, rat; conditions: for Cmax / Tmax / half-life: female, rat, plasma; for Cmax / Tmax: po, 10 mg/kg, p.o. 10 mg/kg
[7] = system: LH levels in castrated rats; experiment: Castrated male rat model, LH suppression; assay type: in vivo
From the text: Experimental Protocol: Male Sprague-Dawley (225-250 g) rats were castrated and allowed 10 days postoperative recovery. Ten days post castration animals were instrumented with indwelling femoral venous and arterial catheters to facilitate remote infusions and blood sampling. On the day of the experiment, animals were allowed to acclimate to the procedure room while residing in their home cage. Basal blood samples were drawn from all animals. Following basal sampling, either vehicle (10% DMSO, 10% cremophor/saline), Antide (1.0 μg) or compound 11 (10 mg/kg) was administered intravenously. Blood samples were drawn 10, 60, 90, 120, 180, 240 minutes after injections. Blood was centrifuged, serum collected and stored in −70° freezer until assayed. Serum samples were analyzed using DSL-4600 ACTIVE LH coated-tube immunoradiometric assay kit from Diagnostic Systems Laboratories, Inc.
Surgical removal of the gonads removes circulating testosterone and eliminates the negative feedback of testosterone on the hypothalamus. […] This model seems suitable for evaluating small molecule GnRH antagonists.
Male Sprague-Dawley ([…]) rats were castrated via the scrotal approach under halothane anesthesia. Animals were allowed 14 days post operative recovery prior to study. Thirteen days following castration, animals were anesthetized with halothane and instrumented with indwelling jugular vein cannula. Details of the cannulation procedure have been described previously {Harms and Ojeda, 1974)}. On study day, animals were allowed to acclimate to the procedure room while residing in their home cage. Basal blood samples were drawn from all animals. Immediately following basal sampling, vehicle or test compounds were administered by various routes. The routes of administration employed were intravenous (iv), intramuscular (im), intraperitoneal (ip), subcutaneous (sc) and oral (po). Blood samples were drawn into heparin containing tubes at multiple time points post treatment. Blood was centrifuged immediately, plasma collected and stored in −20° freezer until assayed. Plasma samples were analyzed using DSL-4600 ACTIVE LH coated-tube immunoradiometric assay kit from Diagnostic Systems Laboratories, Inc.
Formulation #1 (denoted with superscript 1): 10% DMSO, 10% Cremophor EL and 80% physiological saline.
Formulation #2 (denoted with superscript 2): 10% Cremophor EL and 90% physiological saline.

[8] = rat female, 5 mg/ml solution in 10% DMSO 10% cremophor 80% saline

Row | SMILES | IC50 [1] [nM] | IC50 [2] [nM] | IC50 [5] [nM] | also measured
1 | COc1ccc(NC(=O)c2ccc(Cc3cc4c(cc3C)C(C)(C)CCC4(C)C)o2)c(OC)c1 [Compound 99] | 56 | 105 | 108 | Human pmol/min/mg 1 μM [3]: 353 pmol/min/mg; Rat male pmol/min/mg 1 μM [4]: 2549 pmol/min/mg
2 | COc1cccc(OC)c1NC(=O)c1ccc(Cc2c(C)cc(C)cc2C)o1 [Compound 126] | 128 | 684 | 325 | Cmax [6, 8]: 20 nM; Tmax [6, 8]: 0.5 h; half-life ([6]; rat female): 1.9 h; Fp.o. [6, 8]: 2% (10 mg/kg)^10; Human pmol/min/mg 1 μM [3]: 544 pmol/min/mg
3 | Cc1cc2c(cc1Cc1ccc(C(=O)Nc3ccc4[nH]ncc4c3)o1)C(C)(C)CCC2(C)C [Compound 109] | 75 | 140 | 140 | Human pmol/min/mg 1 μM [3]: 130 pmol/min/mg; Rat male pmol/min/mg 1 μM [4]: 1055 pmol/min/mg
4 | COc1cc(OC)c(NC(=O)c2ccc(Cc3cc(C)cc4c3OCCC4(C)C)o2)c(OC)c1 [Compound 190.5] | 350 |  |  | Human pmol/min/mg 1 μM [3]: 1124 pmol/min/mg
5 | COc1cc(OC)c(NC(=O)c2ccc(Cc3cc(C(C)(C)C)ccc3OC)o2)c(OC)c1 [Compound 203] | 130 | 62 | 58 | 
6 | COc1cc(OC)c(NC(=O)c2ccc(Cc3cc(-c4ccccc4)c(C)cc3C)o2)c(OC)c1 [Compound 302] | 167 | 119 | 220 | 
7 | CCC(C)(C)c1ccc(OC)c(Cc2ccc(C(=O)Nc3c(OC)cccc3OC)o2)c1 [Compound 231] | 5 | 24 | 51 | 
8 | COc1cc(OC)c(C(C)=O)cc1NC(=O)c1ccc(Cc2cc3c(cc2C)C(C)(C)CCC3(C)C)o1 [Compound 170] | 50 | 22 | 30 | Fp.o. ([6]; rat male, p.o. 20 mg/kg, vehicle per footnote (DMSO/cremophor/saline)): 0 (20 mg/kg)^7%
9 | Cc1cc2c(cc1Cc1ccc(C(=O)Nc3cccc(B(O)O)c3)o1)C(C)(C)CCC2(C)C [Compound 119] |  |  | 1300 | % Max LH Suppression ([7]; 5.0 mg/kg iv): 63%; time of % Max LH Suppression ([7]; 5.0 mg/kg iv): 1 h; ≧50% Suppression Duration ([7]; 5.0 mg/kg iv): 1 h; % Max LH Suppression ([7]; 10 mg/kg iv): 61%; time of % Max LH Suppression ([7]; 10 mg/kg iv): 1 h; ≧50% Suppression Duration ([7]; 10 mg/kg iv): 1 h; % Max LH Suppression ([7]; 20 mg/kg ip): 79%; time of % Max LH Suppression ([7]; 20 mg/kg ip): 2 h; ≧50% Suppression Duration ([7]; 20 mg/kg ip): 2 h; % Max LH Suppression ([7]; 20 mg/kg po): 63%; Range of Plasma Conc. ([7]; 20 mg/kg po): 0.1 µM; time of % Max LH Suppression ([7]; 20 mg/kg po): 2 h; ≧50% Suppression Duration ([7]; 20 mg/kg po): 2 h; Range of Plasma Conc. ([7]; 20 mg/kg sc): 0.2 µM
10 | CCC(C)(C)c1ccc(OC)c(Cc2ccc(C(=O)Nc3c(OC)cc(OC)cc3OC)o2)c1 [Compound 232] | 19 | 9 | 5.7 | 
11 | COc1cc(OC)c(NC(=O)c2ccc(Cc3c(OC)cc(C)c(Cl)c3C)o2)c(OC)c1 [Compound 299] | 80 | 105 | 290 | Cmax [6, 8]: 1740 nM; Tmax [6, 8]: 1 h; half-life ([6]; rat female): 2.4 h; Fp.o. [6, 8]: 72% (10 mg/kg)^10

More lines, main results first:

Row | IC50 [1] [nM] | IC50 [2] [nM] | IC50 [5] [nM] | SMILES | also measured
12 | 80 | 13 | 8 | Cc1cc2c(cc1Cc1ccc(C(=O)NCc3cccc(CNc4nccc(N5CCOCC5)n4)c3)o1)C(C)(C)CCC2(C)C [Compound 150] | Human pmol/min/mg 1 μM [3]: 655 pmol/min/mg; Rat male pmol/min/mg 1 μM [4]: 3334 pmol/min/mg
13 | 220 | 570 | 385 | Cc1cc2c(cc1Cc1ccc(C(=O)NC[C@H]3CC[C@H](CNc4ccnc(NC[C@@H]5CCCO5)n4)CC3)o1)C(C)(C)CCC2(C)C [Compound 174] | 
14 | 220 | 220 | 170 | Cc1cc2c(cc1Cc1ccc(C(=O)NCC3CCN(c4nccc(NCC5CCCO5)n4)CC3)o1)C(C)(C)CCC2(C)C (stereo not drawn) [Compound 128] | 
15 | 22 | 200 | 250 | Cc1cc2c(cc1Cc1ccc(C(=O)NCC3CCCC(CNC(=O)C(F)(F)F)C3)o1)C(C)(C)CCC2(C)C (stereo not drawn) [Compound 105] | 
16 | 200 | 1570 | 1630 | Cc1cc2c(cc1Cc1ccc(C(=O)NCC3CCCC(CNc4ncccn4)C3)o1)C(C)(C)CCC2(C)C (stereo not drawn) [Compound 138] | 
17 | 120 | 790 | 950 | Cc1cc2c(cc1Cc1ccc(C(=O)NCC3CCC(CNCc4cc(=O)[nH]c(=O)[nH]4)CC3)o1)C(C)(C)CCC2(C)C (stereo not drawn) [Compound 91] | 
18 | 120 | 21 | 11 | COCCCNc1ccnc(NCc2cccc(CNC(=O)c3ccc(Cc4cc5c(cc4C)C(C)(C)CCC5(C)C)o3)c2)n1 [Compound 153] | 
19 | 315 | 1300 | 1490 | Cc1cc2c(cc1Cc1ccc(C(=O)NCC3CCC(CNc4ncc(C#N)c(N)n4)CC3)o1)C(C)(C)CCC2(C)C (stereo not drawn) [Compound 94] | 
20 | 115 | 710 | 740 | Cc1cc2c(cc1Cc1ccc(C(=O)NCC3CCC(CN)CC3)o1)C(C)(C)CCC2(C)C (stereo not drawn) [Compound 75] | 
21 | 110 | 150 | 113 | Cc1cc2c(cc1Cc1ccc(C(=O)NCc3cccc(CN)c3)o1)C(C)(C)CCC2(C)C [Compound 139] | 
22 | 135 | 1050 | 560 | COC(CCCNC(=O)c1ccc(Cc2cc3c(cc2C)C(C)(C)CCC3(C)C)o1)OC [Compound 125] | 
